Converted amounts (≈) assume the structure as drawn.
How the values were obtained:
[1] = tested on: E. coli NCTC 13441 (UPEC); assay: MIC broth microdilution; assay type: cell-based, Escherichia coli; settings: Escherichia coli, NCTC13441
Experimental: (§1) Minimum Inhibitory Concentrations (MICs) versus planktonic bacteria are determined by the broth microdilution procedure according to the guidelines of the Clinical and Laboratory Standards Institute (Clinical and Laboratory Standards Institute. Methods for Dilution Antimicrobial Susceptibility Tests for Bacteria That Grow Aerobically; Approved Standard-tenth Edition. CLSI document M07-A10, 2015). The broth dilution method involves a two-fold serial dilution of compounds in 96-well microtitre plates, giving a final concentration range of 0.39-200 μM and a maximum final concentration of 2% DMSO. The bacterial strains tested include Escherichia coli K12 (EC), E. coli NCTC 13441 (UPEC), Staphylococcus aureus ATCC 35556 (SA), Acinetobacter baumannii ATCC 17978 (AB), Pseudomonas aeruginosa ATCC 33359 (PA), Enterobacter cloacae DSM 30054 (Ed), Serratia marcescens SL1344 (Sm), Salmonella typhimurium XNAA5 (St), Klebsiella pneumoniae ATCC 10031 (KP2), K. pneumoniae NCTC 13438 (KP1), K. pneumoniae ATCC 700603 (KP3), Klebsiella pneumoniae ATCC 51504 (KP4), K. pneumoniae H154680676 (KP5), K. pneumoniae H154020667 (KP6), K. pneumoniae H154640784 (KP7), K. pneumoniae H154600588 (KP8), K. pneumoniae H154300688 (KP9), K. pneumoniae H151440671 (KP10). Strains are grown in cation-adjusted Müller-Hinton broth or on Luria Bertoni agar at 37° C. in an ambient atmosphere. The MIC is determined as the lowest concentration of compound that inhibits growth following a 20-24 hour incubation period.

[2] = tested on: Acinetobacter baumannii ATCC 17978 (AB); assay: MIC broth microdilution; assay type: cell-based; settings: ATCC17978
Experimental: as §1

[3] = tested on: Escherichia coli K12 (EC); assay: MIC broth microdilution; assay type: cell-based
Experimental: as §1

[4] = tested on: Klebsiella pneumoniae ATCC 10031 (KP2); assay: MIC broth microdilution; assay type: cell-based; settings: ATCC10031
Experimental: as §1

[5] = tested on: Pseudomonas aeruginosa ATCC 33359 (PA); assay: MIC broth microdilution; assay type: cell-based; settings: ATCC33359
Experimental: as §1

[6] = tested on: Staphylococcus aureus ATCC 35556 (SA); assay: MIC broth microdilution; assay type: cell-based; settings: ATCC35556
Experimental: as §1

[7] = tested on: K. pneumoniae NCTC 13438 (KP1); assay: MIC broth microdilution; assay type: cell-based, Klebsiella pneumoniae; settings: Klebsiella pneumoniae, NCTC13438
Experimental: as §1

[8] = tested on: human hepatocarcinoma cell line ATCC HB-8065 (HepG2); assay: Human cell viability (CellTiter-Glo); assay type: cell-based; settings: Homo sapiens; HepG2 cells, 24 h incubation, CellTiter-Glo luminescence, 0.2-100 μM; read-out: IC50 values against the HepG2 cell line
Experimental: Compounds are assessed for potential non-specific cytotoxic effects against the human hepatocarcinoma cell line ATCC HB-8065 (HepG2). HepG2 cells are seeded at 20,000 cells/well in 96-well microtitre plates in minimal essential medium (MEM) supplemented with a final concentration of 10% FBS. After 24 h, compound dilutions are prepared in MEM supplemented with a final concentration of 1% FBS, and added to the cells. Compounds are tested in two-fold serial dilutions over a final concentration range of 0.2-100 μM in a final DMSO concentration of 1% vol/vol. Thioridazine is used as a positive control. Cells are incubated with compound at 37° C. and 5% CO2 for a further 24 h, after which time the CellTiter-Glo reagent (Promega) is added. Luminescence is measured on a Perkin Elmer Envision plate reader. Data are analysed using a 4 parameter logistic regression to determine the concentration of compound that inhibits cell viability by fifty percent (IC50).

Compound | MIC [1] [µM] | MIC [2] [µM] | MIC [3] [µM] | MIC [4] [µM] | MIC [5] [µM] | MIC [6] [µM] | MIC [7] [µM] | IC50 [8] [µM]
Cc1cc(-c2nc(N)[nH]c2-c2ccc(C(=O)N(C)C)cc2)ccn1 [Example 10, 4-(2-Amino-4-(2-methylpyridin-4-yl)-1H-imidazol-5-yl)-N,N-dimethylbenzamide] | > 100 | > 100 | > 100 | 1 to 10 (≈ 0.321 to 3.21 µg/mL) | > 100 | > 100 | > 100 | > 100
COc1ccc(-c2[nH]c(N)nc2-c2ccnc(C)c2)cc1F [Example 11, 5-(3-Fluoro-4-methoxyphenyl)-4-(2-methylpyridin-4-yl)-1H-imidazol-2-amine] | 1 to 10 (≈ 0.298 to 2.98 µg/mL) | > 100 | 1 to 10 (≈ 0.298 to 2.98 µg/mL) | ≤ 1 | > 100 | > 100 | 10 to 100 (≈ 2.98 to 29.8 µg/mL) | > 100
Cc1cc(-c2nc(N)[nH]c2-c2ccc(OCC3CC3)c(F)c2)ccn1 [Example 13, 5-(4-(Cyclopropylmethoxy)-3-fluorophenyl)-4-(2-methylpyridin-4-yl)-1H-imidazol-2-amine] | 1 to 10 (≈ 0.338 to 3.38 µg/mL) | > 100 | 1 to 10 (≈ 0.338 to 3.38 µg/mL) | ≤ 1 | > 100 | > 100 | 10 to 100 (≈ 3.38 to 33.8 µg/mL) | 25 to 100
Cc1cc(-c2nc(N)[nH]c2-c2ccc(OC3CC3)c(F)c2)ccn1 [Example 14, 5-(4-Cyclopropoxy-3-fluorophenyl)-4-(2-methylpyridin-4-yl)-1H-imidazol-2-amine] | ≤ 1 | > 100 | ≤ 1 | ≤ 1 | > 100 | > 100 | 1 to 10 (≈ 0.324 to 3.24 µg/mL) | > 100
Cc1cc(-c2nc(N)[nH]c2-c2ccc(O)c(F)c2)ccn1 [Example 15, 4-(2-Amino-4-(2-methylpyridin-4-yl)-1H-imidazol-5-yl)-2-fluorophenol] | 1 to 10 (≈ 0.284 to 2.84 µg/mL) | > 100 | 10 to 100 (≈ 2.84 to 28.4 µg/mL) | ≤ 1 | > 100 | > 100 | 10 to 100 (≈ 2.84 to 28.4 µg/mL) | > 100
CCOc1ccc(-c2[nH]c(N)nc2-c2ccnc(C)c2)cc1F [Example 17, 5-(4-Ethoxy-3-fluorophenyl)-4-(2-methylpyridin-4-yl)-1H-imidazol-2-amine] | 1 to 10 (≈ 0.312 to 3.12 µg/mL) | > 100 | 1 to 10 (≈ 0.312 to 3.12 µg/mL) | ≤ 1 | > 100 | > 100 | 10 to 100 (≈ 3.12 to 31.2 µg/mL) | > 100
Nc1nc(-c2ccc3c(c2)OCCO3)c(-c2cc[nH]c(=O)c2)[nH]1 [Example 18, 4-(2-Amino-4-(2,3-dihydrobenzo[b][1,4]dioxin-6-yl)-1H-imidazol-5-yl)pyridin-2(1H)-one] | 10 to 100 (≈ 3.1 to 31 µg/mL) | > 100 | 10 to 100 (≈ 3.1 to 31 µg/mL) | 1 to 10 (≈ 0.31 to 3.1 µg/mL) | > 100 | > 100 | > 100 | > 100
Cc1cc(-c2[nH]c(N)nc2-c2ccc(OC(F)(F)F)cc2)ccn1 [Example 20, 5-(2-Methylpyridin-4-yl)-4-(4-(trifluoromethoxy)phenyl)-1H-imidazol-2-amine] | 1 to 10 (≈ 0.334 to 3.34 µg/mL) | > 100 | 1 to 10 (≈ 0.334 to 3.34 µg/mL) | ≤ 1 | > 100 | > 100 | 10 to 100 (≈ 3.34 to 33.4 µg/mL) | 25 to 100
COc1cccc(-c2nc(N)[nH]c2-c2ccnc(C)c2)c1 [Example 25, 4-(3-Methoxyphenyl)-5-(2-methylpyridin-4-yl)-1H-imidazol-2-amine] | 10 to 100 (≈ 2.8 to 28 µg/mL) | > 100 | 10 to 100 (≈ 2.8 to 28 µg/mL) | ≤ 1 | > 100 | > 100 | 10 to 100 (≈ 2.8 to 28 µg/mL) | > 100

— patent publication US11345694B2, “Antibacterial compounds” (DISCUVA LTD., priority 2017, dated 2022)
